Columns and labels:
[1] = test system: Pfeiffer DLBCL cells; assay: In vitro proliferation of Pfeiffer DLBCL cells, single agents and combination; assay type: cell-based
Experimental: Synergistic effects of INCB053914 in combination with INCB050465, cytarabine, or itacitinib, were assessed based on the Bliss independence model. In this model, the expected additive effect, with the assumption that concentration dependent effects of 2 drugs (A and B) are independent, is given by the equation EIND = EA + EB – EA •EB, where 0 ≤ EIND ≤ 1; EA and EB are the magnitudes of effects of A and B alone at given concentrations.
The interaction between effects of A and B can be described by the equation Combination Index = EIND/ EOBS, where EOBS is the observed combined effect of A + B expressed as a probability (0 ≤ EOBS ≤ 1). If the point estimate of Combination Index and its upper 97.5% confidence limit are <1 then the combined effect is synergistic; if the 2-sided 95% confidence intervals (CI) encompass 1 then the combined effect is additive (ie, independent); if the point estimate of Combination Index and the lower 2.5% confidence limit are >1 then the combined effect of A + B are antagonistic.

[2] = target: ROCK1 (Homo sapiens, UniProt Q13464); assay: Kinase selectivity panel; assay type: biochemical; conditions: [ATP] = 1 mM
[3] = target: LOK (Homo sapiens, UniProt O94804); assay: Kinase selectivity panel; assay type: biochemical; conditions: [ATP] = 1 mM
[4] = target: PAK4 (Homo sapiens, UniProt O96013); assay: Kinase selectivity panel; assay type: biochemical; conditions: [ATP] = 1 mM
[5] = test system: KMS-12-BM (MM) xenografts; assay: Tumor growth in KMS-12-BM (MM) xenograft; assay type: in vivo, mouse; conditions: KMS-12-BM tumors
Experimental: Female immune compromised (severe combined immunodeficiency [SCID]) mice (5–9 weeks of age; Charles River Laboratories, Wilmington, Massachusetts) were inoculated with MOLM-16, KG-1, or KMS-12-BM cells. A cell suspension in Dulbecco’s phosphate-buffered saline (DPBS) (1 × 10^8 cells/ml) was mixed 1:1 (v/v) with matrigel, and 200 μl was injected subcutaneously into the flank of each mouse. Studies of INCB053914 combination regimens used xenograft models derived from INA-6 (MM) cells or Pfeiffer (DLBCL) cells. INA-6 tumor fragments were injected subcutaneously as brei (100 μl in Hank’s balanced salt solution [HBSS, 1:10 v/v]) into the flank of each mouse; Pfeiffer tumor fragments (1 cm × 1 cm) were directly implanted. The treatment of tumor-bearing mice started 7 to 24 days after tumor inoculation for efficacy studies and approximately 14 to 27 days after tumor inoculation for pharmacodynamic studies.
For efficacy studies, mice were sorted to obtain approximately equivalent mean tumor volumes in each group. The starting mean tumor volume in efficacy studies for all groups ranged from 158 mm^3 to 249 mm^3, and groups consisted of eight or nine animals. The mean tumor volume in pharmacodynamic studies for all groups ranged from 114 mm^3 to 833 mm^3, and groups consisted of three to eight animals. INCB053914 was administered by oral gavage twice a day for 7 to 19 days (suspension in 5% dimethylacetamide with 0.5% w/v methylcellulose [Sigma-Aldrich]) or by subcutaneous continuous infusion (Alzet osmotic pumps; flow rate 0.5 μl/h for efficacy studies and 1.0 μl/h for pharmacodynamic studies).
(§1) For the evaluation of the effects of INCB053914 on tumor growth, tumor-bearing mice (MOLM-16 xenograft, eight mice/group; KMS-12-BM xenograft, nine mice/group) were dosed orally twice a day with INCB053914 at doses ranging from 0 (vehicle) to 100 mg/kg for 15 days.
Tumor volume was calculated in two dimensions using the equation: volume = [length × (width^2)] / 2, where the larger number was length and the smaller number was width. Effects on tumor growth were reported as percent tumor growth inhibition calculated as (1 − [treatment volume / control volume]) × 100, where control volume was the vehicle/untreated tumor volume on a given day and treatment volume was any treatment group tumor volume on that same day. Statistical significance of differences between treatment and vehicle controls was assessed using analysis of variance single factor test.

[6] = target: CHEK1 (Homo sapiens, UniProt O14757); assay: Kinase selectivity panel; assay type: biochemical; conditions: [ATP] = 1 mM
[7] = target: NLK (Homo sapiens, UniProt Q9UBE8); assay: Kinase selectivity panel; assay type: biochemical; conditions: [ATP] = 1 mM
[8] = target: EPHA2 (Homo sapiens, UniProt P29317); assay: Kinase selectivity panel; assay type: biochemical; conditions: [ATP] = 1 mM
[9] = Tolerability in tumor-bearing SCID mice; assay type: in vivo; conditions: MOLM-16 and KMS-12-BM tumor-bearing mice, oral twice a day up to 100 mg/kg
Experimental: Non- GLP studies intended to characterize the pharmacology of INCB053914 were conducted in accordance with Incyte Corporation's Animal Use Protocols and DuPont Stine-Haskell SOPs. Animals were housed in barrier facilities fully accredited by the Association for Assessment and Accreditation of Laboratory Animal Care, International. All of the procedures were conducted under the supervision of a veterinarian and in accordance with the U.S. Public Health Service Policy on Humane Care and Use of Laboratory Animals. […] Analgesics and anesthetics could be used to minimize animal suffering and distress; neither were required during these studies. Animals on study were monitored twice daily and there were no unexpected deaths.
as §1

[10] = target: EGFR (Homo sapiens, UniProt P00533); assay: Kinase selectivity panel; assay type: biochemical; conditions: [ATP] = 1 mM
[11] = target: RPS6KB1 (Homo sapiens, UniProt P23443); assay: Kinase selectivity panel; assay type: biochemical; conditions: [ATP] = 1 mM
[12] = test system: PIM2 expression in PBMCs; assay: PIM2 expression in PBMCs from whole blood of patients with AML treated ex vivo; assay type: cell-based; conditions: Homo sapiens, PBMC, read-out: EC50 for increased PIM2 expression, whole blood treated overnight ex vivo
Experimental: The effects of INCB053914 on pBAD, pp70S6K, and p4E-BP1 levels and on the expression of PIM isozymes also were assessed ex vivo in primary bone marrow blasts (Stem Cell and Xenograft Core, University of Pennsylvania, Philadelphia, Pennsylvania) or in peripheral blood mononuclear cells (PBMCs) derived from whole blood samples obtained with informed written consent from adult patients with AML enrolled in an ongoing phase 1/2 dose-escalation trial, which was conducted in accordance with the study protocol approved by the respective institutional review boards or independent ethics committees. Only samples initially containing >90% viable cells were used (assessed by Trypan Blue staining). Immediately after thawing, the blasts were cultured in RPMI + 10% FBS with INCB053914 for 2 hours at 37°C, before lysis. For determinations of PIM2 expression in PBMCs, whole blood samples were treated overnight with increasing concentrations of INCB053914; total PBMCs were isolated by Ficoll-Paque density gradient centrifugation before lysis. The levels of PIM isozymes and phosphoproteins in cell lysates were detected by Western blotting using the same primary antibodies as above.

Sequence of RPS6KB1 (P23443 whole entry): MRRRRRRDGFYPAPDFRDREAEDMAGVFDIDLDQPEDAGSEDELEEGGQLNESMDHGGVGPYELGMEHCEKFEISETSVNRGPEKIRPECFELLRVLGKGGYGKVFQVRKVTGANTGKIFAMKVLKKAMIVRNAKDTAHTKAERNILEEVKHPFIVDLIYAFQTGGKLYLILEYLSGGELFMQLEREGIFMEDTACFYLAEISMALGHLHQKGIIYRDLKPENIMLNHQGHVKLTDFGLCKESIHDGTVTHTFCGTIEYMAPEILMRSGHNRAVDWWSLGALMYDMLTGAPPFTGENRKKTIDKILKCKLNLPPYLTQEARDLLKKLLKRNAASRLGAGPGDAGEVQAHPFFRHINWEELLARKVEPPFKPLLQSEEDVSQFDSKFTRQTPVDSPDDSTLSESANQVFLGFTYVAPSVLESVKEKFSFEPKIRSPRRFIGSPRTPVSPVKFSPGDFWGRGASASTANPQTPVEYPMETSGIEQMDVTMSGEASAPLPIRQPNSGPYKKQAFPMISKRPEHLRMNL
Sequence of NLK (Q9UBE8 whole entry): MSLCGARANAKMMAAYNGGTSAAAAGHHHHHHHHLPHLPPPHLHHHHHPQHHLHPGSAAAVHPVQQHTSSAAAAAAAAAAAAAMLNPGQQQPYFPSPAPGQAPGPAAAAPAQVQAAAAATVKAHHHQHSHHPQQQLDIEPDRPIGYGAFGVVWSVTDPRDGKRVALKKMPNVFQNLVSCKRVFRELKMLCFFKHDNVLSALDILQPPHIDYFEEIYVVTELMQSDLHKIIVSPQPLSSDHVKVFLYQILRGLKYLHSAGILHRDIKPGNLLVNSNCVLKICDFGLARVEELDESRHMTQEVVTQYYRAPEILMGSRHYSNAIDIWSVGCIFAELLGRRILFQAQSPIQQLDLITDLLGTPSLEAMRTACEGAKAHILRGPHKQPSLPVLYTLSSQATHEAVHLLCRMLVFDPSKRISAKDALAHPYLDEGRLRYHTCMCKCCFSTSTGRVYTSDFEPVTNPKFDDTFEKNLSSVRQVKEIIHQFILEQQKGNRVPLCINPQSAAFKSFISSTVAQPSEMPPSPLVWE
Sequence of EPHA2 (P29317 24-976): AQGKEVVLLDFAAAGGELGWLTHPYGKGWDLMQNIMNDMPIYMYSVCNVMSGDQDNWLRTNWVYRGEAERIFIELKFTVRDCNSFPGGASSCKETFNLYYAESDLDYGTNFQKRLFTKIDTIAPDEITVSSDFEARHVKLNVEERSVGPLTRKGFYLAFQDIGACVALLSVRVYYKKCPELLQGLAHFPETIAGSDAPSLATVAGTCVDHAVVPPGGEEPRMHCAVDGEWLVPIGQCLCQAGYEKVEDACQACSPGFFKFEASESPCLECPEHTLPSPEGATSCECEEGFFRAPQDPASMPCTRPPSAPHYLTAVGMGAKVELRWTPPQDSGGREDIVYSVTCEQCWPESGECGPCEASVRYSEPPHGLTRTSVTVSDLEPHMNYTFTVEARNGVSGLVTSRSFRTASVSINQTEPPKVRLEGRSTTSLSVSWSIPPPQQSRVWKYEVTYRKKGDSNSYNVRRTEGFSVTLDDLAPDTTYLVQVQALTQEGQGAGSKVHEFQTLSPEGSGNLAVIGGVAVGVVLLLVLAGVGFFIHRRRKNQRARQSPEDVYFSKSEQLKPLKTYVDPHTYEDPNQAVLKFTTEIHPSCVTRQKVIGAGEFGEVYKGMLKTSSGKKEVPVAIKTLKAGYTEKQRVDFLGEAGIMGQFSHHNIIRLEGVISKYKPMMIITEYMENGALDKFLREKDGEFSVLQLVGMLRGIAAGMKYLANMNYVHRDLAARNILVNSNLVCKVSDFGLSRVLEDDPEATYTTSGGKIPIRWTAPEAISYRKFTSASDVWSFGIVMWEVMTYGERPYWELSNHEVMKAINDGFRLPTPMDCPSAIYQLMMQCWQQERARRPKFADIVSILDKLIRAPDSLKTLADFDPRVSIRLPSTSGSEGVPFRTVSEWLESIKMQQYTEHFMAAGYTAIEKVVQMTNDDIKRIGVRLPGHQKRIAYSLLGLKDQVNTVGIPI
Sequence of LOK (O94804 whole entry): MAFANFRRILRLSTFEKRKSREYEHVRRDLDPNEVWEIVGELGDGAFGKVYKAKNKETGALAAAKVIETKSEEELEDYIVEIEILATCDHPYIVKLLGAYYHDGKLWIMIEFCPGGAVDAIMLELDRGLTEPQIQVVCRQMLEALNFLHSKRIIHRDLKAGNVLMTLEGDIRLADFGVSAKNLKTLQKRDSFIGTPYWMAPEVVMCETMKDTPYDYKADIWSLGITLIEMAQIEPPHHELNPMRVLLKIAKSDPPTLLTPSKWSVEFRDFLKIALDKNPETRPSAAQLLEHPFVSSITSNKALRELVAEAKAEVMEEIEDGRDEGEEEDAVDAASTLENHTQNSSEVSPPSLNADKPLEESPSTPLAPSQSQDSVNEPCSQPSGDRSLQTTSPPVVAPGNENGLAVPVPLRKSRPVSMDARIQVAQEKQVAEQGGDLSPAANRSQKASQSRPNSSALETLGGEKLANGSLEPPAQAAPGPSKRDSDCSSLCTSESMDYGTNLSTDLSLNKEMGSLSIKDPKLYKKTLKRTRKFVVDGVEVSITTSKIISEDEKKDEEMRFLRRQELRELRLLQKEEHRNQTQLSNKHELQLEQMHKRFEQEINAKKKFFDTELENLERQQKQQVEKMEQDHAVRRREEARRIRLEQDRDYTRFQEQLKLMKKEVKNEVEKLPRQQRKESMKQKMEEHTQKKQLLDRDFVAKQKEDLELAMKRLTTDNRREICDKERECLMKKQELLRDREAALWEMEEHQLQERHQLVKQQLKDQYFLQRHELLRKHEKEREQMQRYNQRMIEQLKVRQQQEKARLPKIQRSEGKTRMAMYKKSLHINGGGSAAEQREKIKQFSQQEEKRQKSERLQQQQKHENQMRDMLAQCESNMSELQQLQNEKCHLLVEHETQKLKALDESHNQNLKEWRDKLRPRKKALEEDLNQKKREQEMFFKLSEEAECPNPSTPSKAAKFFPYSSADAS
Sequence of ROCK1 (Q13464 whole entry): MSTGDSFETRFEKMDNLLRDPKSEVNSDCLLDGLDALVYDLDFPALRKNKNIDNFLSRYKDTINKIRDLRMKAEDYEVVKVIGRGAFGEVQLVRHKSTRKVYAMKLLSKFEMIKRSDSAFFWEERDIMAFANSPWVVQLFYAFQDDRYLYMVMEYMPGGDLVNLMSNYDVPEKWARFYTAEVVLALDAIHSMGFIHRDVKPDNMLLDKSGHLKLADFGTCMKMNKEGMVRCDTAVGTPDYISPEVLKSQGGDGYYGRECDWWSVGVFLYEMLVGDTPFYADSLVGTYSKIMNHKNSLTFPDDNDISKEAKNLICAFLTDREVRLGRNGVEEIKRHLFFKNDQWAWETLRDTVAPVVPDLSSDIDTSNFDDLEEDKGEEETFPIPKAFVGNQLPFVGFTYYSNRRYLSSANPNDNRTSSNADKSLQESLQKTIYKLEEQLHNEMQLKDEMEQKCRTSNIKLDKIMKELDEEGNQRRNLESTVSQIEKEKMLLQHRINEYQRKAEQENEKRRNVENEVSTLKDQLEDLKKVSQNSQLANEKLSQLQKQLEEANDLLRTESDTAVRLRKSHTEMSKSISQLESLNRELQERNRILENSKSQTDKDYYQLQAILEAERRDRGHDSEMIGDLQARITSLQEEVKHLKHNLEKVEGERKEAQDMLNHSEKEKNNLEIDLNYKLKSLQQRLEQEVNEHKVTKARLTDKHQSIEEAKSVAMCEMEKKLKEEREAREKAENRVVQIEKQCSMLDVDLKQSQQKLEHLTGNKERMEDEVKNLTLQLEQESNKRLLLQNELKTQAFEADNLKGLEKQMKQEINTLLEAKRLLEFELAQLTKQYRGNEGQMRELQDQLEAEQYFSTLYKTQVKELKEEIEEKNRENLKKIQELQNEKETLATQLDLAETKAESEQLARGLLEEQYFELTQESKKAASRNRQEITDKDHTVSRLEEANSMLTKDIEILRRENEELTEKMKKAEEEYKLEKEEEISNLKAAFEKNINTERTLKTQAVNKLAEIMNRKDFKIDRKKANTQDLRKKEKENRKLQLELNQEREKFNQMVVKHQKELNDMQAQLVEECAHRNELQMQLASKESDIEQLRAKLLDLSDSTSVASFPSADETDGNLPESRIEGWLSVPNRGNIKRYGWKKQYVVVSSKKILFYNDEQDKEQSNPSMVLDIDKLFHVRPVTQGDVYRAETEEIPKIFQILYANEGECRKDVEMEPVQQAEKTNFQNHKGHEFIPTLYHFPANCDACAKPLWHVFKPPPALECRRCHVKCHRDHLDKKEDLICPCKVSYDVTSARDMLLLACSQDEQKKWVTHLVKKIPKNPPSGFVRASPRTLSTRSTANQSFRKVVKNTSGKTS
Sequence of CHEK1 (O14757 whole entry): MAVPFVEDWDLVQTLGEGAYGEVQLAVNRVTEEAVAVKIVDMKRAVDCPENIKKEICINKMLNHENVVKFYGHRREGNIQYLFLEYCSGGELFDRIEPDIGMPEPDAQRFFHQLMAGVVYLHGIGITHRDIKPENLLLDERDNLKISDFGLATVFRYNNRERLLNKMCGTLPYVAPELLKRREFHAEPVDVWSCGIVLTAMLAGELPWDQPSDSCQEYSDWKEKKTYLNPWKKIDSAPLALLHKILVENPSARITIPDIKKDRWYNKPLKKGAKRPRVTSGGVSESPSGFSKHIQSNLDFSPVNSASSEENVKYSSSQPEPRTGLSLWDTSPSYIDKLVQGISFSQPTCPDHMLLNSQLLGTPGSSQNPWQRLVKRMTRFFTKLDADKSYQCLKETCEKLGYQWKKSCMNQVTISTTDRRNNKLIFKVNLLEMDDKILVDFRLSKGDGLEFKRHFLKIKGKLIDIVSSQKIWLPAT

C[C@H]1CN(c2c(NC(=O)c3ccc(F)c(-c4c(F)cccc4F)n3)cnc3c2CC[C@H]3O)C[C@@H](N)[C@@H]1O.O=P(O)(O)O [INCB053914, N-((R)-4-((3R,4R,5S)-3-amino-4-hydroxy-5-methylpiperidin-1-yl)-7-hydroxy-6,7-dihydro-5H-cyclopenta[b]pyridin-3-yl)-6-(2,6-difluorophenyl)-5-fluoropicolinamide phosphate]
proliferation of Pfeiffer cells, single agent [1]: inhibited
IC50 [2]: > 20 µM
IC50 [3]: > 20 µM
IC50 [4]: > 20 µM
tumor growth inhibition ([5]; 25 mg/kg twice a day): 43%
tumor growth inhibition ([5]; 50 mg/kg twice a day): 71%
tumor growth inhibition ([5]; 75 mg/kg twice a day): 77%
tumor growth inhibition ([5]; 100 mg/kg twice a day): 88%
IC50 [6]: > 20 µM
IC50 [7]: > 20 µM
IC50 [8]: > 20 µM
tolerability [9]: tolerated at all doses tested
IC50 [10]: > 20 µM
IC50 [11]: > 20 µM
EC50 [12]: 0.116 µM

Reference: PMC6013247, “Preclinical characterization of INCB053914, a novel pan-PIM kinase inhibitor, alone and in combination with anticancer agents, in models of hematologic malignancies” (PLoS ONE, 2018)
